System: 855422-203-R-J1-PDC complex spheroid viability
Experiment: Anticancer human tumor 855422-203-R-J1-PDC patient-derived bladder carcinoma cell line growth inhibition [POLQ]
Details: for IC50: curve of first compound; for viability, T/C: stronger effect = lower value; active = viability on the fitted dose curve at most 10% of control; inactive = the rest
In short: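 Complex spheroid viability model combining PDC tumour cells with endothelial (HUVEC) and MSC stromal cells. Novobiocin, ART-558 or RP6685 were tested singly and in combination with standard and investigational anticancer drugs. Each was titrated in half-log steps from near clinical Cmax, or from 10 microM where Cmax was unknown.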

[1] = second compound 0.0316 µM, first compound 0.0316 µM
[2] = second compound 0.0316 µM, first compound 0.1 µM
[3] = second compound 0.0316 µM, first compound 0.316 µM
[4] = second compound 0.0316 µM, first compound 1 µM
[5] = second compound 0.0316 µM, first compound 3.16 µM
[6] = second compound 0.0316 µM, first compound 10 µM
[7] = second compound 0.1 µM, first compound 0.0316 µM
[8] = second compound 0.1 µM, first compound 0.1 µM
[9] = second compound 0.1 µM, first compound 0.316 µM
[10] = second compound 0.1 µM, first compound 1 µM
[11] = second compound 0.1 µM, first compound 3.16 µM
[12] = second compound 0.1 µM, first compound 10 µM
[13] = second compound 0.316 µM, first compound 0.0316 µM
[14] = second compound 0.316 µM, first compound 0.1 µM
[15] = second compound 0.316 µM, first compound 0.316 µM
[16] = second compound 0.316 µM, first compound 1 µM
[17] = second compound 0.316 µM, first compound 3.16 µM
[18] = second compound 0.316 µM, first compound 10 µM
[19] = second compound 1 µM, first compound 0.0316 µM
[20] = second compound 1 µM, first compound 0.1 µM
[21] = second compound 1 µM, first compound 0.316 µM
[22] = second compound 1 µM, first compound 1 µM
[23] = second compound 1 µM, first compound 3.16 µM
[24] = second compound 1 µM, first compound 10 µM
[25] = second compound 3.16 µM, first compound 0.0316 µM
[26] = second compound 3.16 µM, first compound 0.1 µM
[27] = second compound 3.16 µM, first compound 0.316 µM
[28] = second compound 3.16 µM, first compound 1 µM
[29] = second compound 3.16 µM, first compound 3.16 µM
[30] = second compound 3.16 µM, first compound 10 µM
[31] = second compound 10 µM, first compound 0.0316 µM
[32] = second compound 10 µM, first compound 0.1 µM
[33] = second compound 10 µM, first compound 0.316 µM
[34] = second compound 10 µM, first compound 1 µM
[35] = second compound 10 µM, first compound 3.16 µM
[36] = second compound 10 µM, first compound 10 µM
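Also: spheroids exposed to compounds for seven days before readout.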

C=CC(=O)N1CCN(c2nc(=O)n(-c3c(C)ccnc3C(C)C)c3nc(-c4c(O)cccc4F)c(F)cc23)C(C)C1 (stereo not given) + Nc1ccc(C#CCN(C(=O)Cc2ncc(C(F)(F)F)cc2C(F)(F)F)c2ccc(F)cc2)nn1
> 10 µM: IC50 (second compound 0.0316 µM) | IC50 (second compound 0.1 µM) | IC50 (second compound 0.316 µM) | IC50 (second compound 1 µM) | IC50 (second compound 3.16 µM) | IC50 (second compound 10 µM)
inactive: viability, T/C [1] 101% | viability, T/C [2] 116% | viability, T/C [3] 120% | viability, T/C [4] 105% | viability, T/C [5] 144% | viability, T/C [6] 214% | viability, T/C [7] 99% | viability, T/C [8] 137% | viability, T/C [9] 107% | viability, T/C [10] 121% | viability, T/C [11] 159% | viability, T/C [12] 235% | viability, T/C [13] 126% | viability, T/C [14] 129% | viability, T/C [15] 121% | viability, T/C [16] 122% | viability, T/C [17] 146% | viability, T/C [18] 176% | viability, T/C [19] 99.4% | viability, T/C [20] 113% | viability, T/C [21] 92.2% | viability, T/C [22] 158% | viability, T/C [23] 120% | viability, T/C [24] 173% | viability, T/C [25] 103% | viability, T/C [26] 121% | viability, T/C [27] 97.2% | viability, T/C [28] 129% | viability, T/C [29] 129% | viability, T/C [30] 175% | viability, T/C [31] 109% | viability, T/C [32] 108% | viability, T/C [33] 99.1% | viability, T/C [34] 117% | viability, T/C [35] 113% | viability, T/C [36] 124%

CC1COCCN1c1cc(-c2ccnn2C)c2ccnc(-c3ccn[nH]3)c2n1 (stereo not given) + Nc1ccc(C#CCN(C(=O)Cc2ncc(C(F)(F)F)cc2C(F)(F)F)c2ccc(F)cc2)nn1
0.234 µM: IC50 (second compound 3.16 µM)
0.202 µM: IC50 (second compound 10 µM)
0.253 µM: IC50 (second compound 0.316 µM)
inactive: viability, T/C [1] 124% | viability, T/C [2] 124% | viability, T/C [3] 33.2% | viability, T/C [4] 16% | viability, T/C [5] 13.6% | viability, T/C [6] 12.8% | viability, T/C [7] 118% | viability, T/C [8] 159% | viability, T/C [9] 37.7% | viability, T/C [10] 17.4% | viability, T/C [11] 11.8% | viability, T/C [12] 11.9% | viability, T/C [13] 128% | viability, T/C [14] 140% | viability, T/C [15] 30% | viability, T/C [16] 13.2% | viability, T/C [17] 11.3% | viability, T/C [18] 10.5% | viability, T/C [19] 119% | viability, T/C [20] 92.5% | viability, T/C [21] 23.3% | viability, T/C [22] 15.3% | viability, T/C [23] 12.6% | viability, T/C [24] 8.88% | viability, T/C [25] 102% | viability, T/C [26] 128% | viability, T/C [27] 27.1% | viability, T/C [28] 15.1% | viability, T/C [29] 10.3% | viability, T/C [30] 8.61% | viability, T/C [31] 119% | viability, T/C [32] 88.8% | viability, T/C [33] 25.2% | viability, T/C [34] 12.9% | viability, T/C [35] 11.1% | viability, T/C [36] 10.7%
0.255 µM: IC50 (second compound 0.0316 µM)
0.275 µM: IC50 (second compound 0.1 µM)
0.203 µM: IC50 (second compound 1 µM)

CCc1cc2c(N3CCc4c(cc(Cn5ccnc5)cc4-c4cn(C)nc4C(F)(F)F)C3=O)cc(C)nc2c(OC)n1 + Nc1ccc(C#CCN(C(=O)Cc2ncc(C(F)(F)F)cc2C(F)(F)F)c2ccc(F)cc2)nn1
5.49 µM: IC50 (second compound 0.316 µM)
5.25 µM: IC50 (second compound 3.16 µM)
6 µM: IC50 (second compound 0.0316 µM)
3.47 µM: IC50 (second compound 10 µM)
5.3 µM: IC50 (second compound 0.1 µM)
inactive: viability, T/C [1] 133% | viability, T/C [2] 120% | viability, T/C [3] 119% | viability, T/C [4] 93.5% | viability, T/C [5] 66.3% | viability, T/C [6] 37.1% | viability, T/C [7] 131% | viability, T/C [8] 138% | viability, T/C [9] 127% | viability, T/C [10] 96% | viability, T/C [11] 63.5% | viability, T/C [12] 35.5% | viability, T/C [13] 114% | viability, T/C [14] 138% | viability, T/C [15] 108% | viability, T/C [16] 95.8% | viability, T/C [17] 61.5% | viability, T/C [18] 37.4% | viability, T/C [19] 111% | viability, T/C [20] 121% | viability, T/C [21] 111% | viability, T/C [22] 92.2% | viability, T/C [23] 71.5% | viability, T/C [24] 37.1% | viability, T/C [25] 110% | viability, T/C [26] 118% | viability, T/C [27] 133% | viability, T/C [28] 92.5% | viability, T/C [29] 61.2% | viability, T/C [30] 38.6% | viability, T/C [31] 116% | viability, T/C [32] 115% | viability, T/C [33] 98% | viability, T/C [34] 77.4% | viability, T/C [35] 52.2% | viability, T/C [36] 31.7%
6.4 µM: IC50 (second compound 1 µM)

COc1cc2cc(C(=O)CCC(=O)O)sc2cc1OC + Nc1ccc(C#CCN(C(=O)Cc2ncc(C(F)(F)F)cc2C(F)(F)F)c2ccc(F)cc2)nn1
> 10 µM: IC50 (second compound 0.0316 µM) | IC50 (second compound 0.1 µM) | IC50 (second compound 0.316 µM) | IC50 (second compound 1 µM) | IC50 (second compound 3.16 µM) | IC50 (second compound 10 µM)
inactive: viability, T/C [1] 97.8% | viability, T/C [2] 121% | viability, T/C [3] 97.6% | viability, T/C [4] 86.3% | viability, T/C [5] 109% | viability, T/C [6] 94.5% | viability, T/C [7] 99.8% | viability, T/C [8] 101% | viability, T/C [9] 91% | viability, T/C [10] 82% | viability, T/C [11] 138% | viability, T/C [12] 109% | viability, T/C [13] 104% | viability, T/C [14] 105% | viability, T/C [15] 90% | viability, T/C [16] 94.1% | viability, T/C [17] 107% | viability, T/C [18] 92% | viability, T/C [19] 86.8% | viability, T/C [20] 104% | viability, T/C [21] 102% | viability, T/C [22] 98.7% | viability, T/C [23] 97.3% | viability, T/C [24] 90.4% | viability, T/C [25] 92.4% | viability, T/C [26] 111% | viability, T/C [27] 94.9% | viability, T/C [28] 97.5% | viability, T/C [29] 97.1% | viability, T/C [30] 88.6% | viability, T/C [31] 92.8% | viability, T/C [32] 92% | viability, T/C [33] 87.1% | viability, T/C [34] 102% | viability, T/C [35] 96% | viability, T/C [36] 88.5%

COc1ccc([C@@H](O)c2cc(-c3ncnc4cc(N5CCOCC5)ccc34)c(F)cc2Cl)nn1 + Nc1ccc(C#CCN(C(=O)Cc2ncc(C(F)(F)F)cc2C(F)(F)F)c2ccc(F)cc2)nn1
9.83 µM: IC50 (second compound 10 µM)
> 10 µM: IC50 (second compound 0.0316 µM) | IC50 (second compound 0.1 µM) | IC50 (second compound 0.316 µM) | IC50 (second compound 1 µM) | IC50 (second compound 3.16 µM)
inactive: viability, T/C [1] 110% | viability, T/C [2] 105% | viability, T/C [3] 89% | viability, T/C [4] 94.5% | viability, T/C [5] 106% | viability, T/C [6] 58.4% | viability, T/C [7] 91.8% | viability, T/C [8] 104% | viability, T/C [9] 104% | viability, T/C [10] 98.1% | viability, T/C [11] 106% | viability, T/C [12] 59.4% | viability, T/C [13] 115% | viability, T/C [14] 126% | viability, T/C [15] 86.4% | viability, T/C [16] 98.5% | viability, T/C [17] 110% | viability, T/C [18] 54.3% | viability, T/C [19] 99.8% | viability, T/C [20] 96.8% | viability, T/C [21] 93.4% | viability, T/C [22] 104% | viability, T/C [23] 111% | viability, T/C [24] 51% | viability, T/C [25] 94.6% | viability, T/C [26] 105% | viability, T/C [27] 87.5% | viability, T/C [28] 94.2% | viability, T/C [29] 90.7% | viability, T/C [30] 57.4% | viability, T/C [31] 92.3% | viability, T/C [32] 92.5% | viability, T/C [33] 98.3% | viability, T/C [34] 86.2% | viability, T/C [35] 98.6% | viability, T/C [36] 49.3%
